Like-named read-outs stand apart in the source and are kept apart here.
Columns and labels:
[1] = cited from earlier work
[2] = Cellvento CHO 200, text
[3] = in water at 25° C.; cited from earlier work

Compound | Solubility (water) PubChem Database ([1]; at 25° C.) | other results
[Ca+2].[Cl-].[Cl-] [Calcium Chloride anhydrous] |  | Solubility (water) PubChem Database ([1]; at 20° C.): 745 g/l at
[Cl-].[K+] [Potassium chloride] | 35.5/100 g /100 g water | 
Cl.NCCCC[C@H](N)C(=O)O [L-LYSINE MONOHYDROCHLORIDE] | >100 g/100 g/100 ml | 
N[C@@H](CSSC[C@H](N)C(=O)O)C(=O)O [L-Cystine, L-cystine] |  | Maximal concentration in Cellvento CHO 200 at which the medium can still be completely dissolved in water [2]: below 0.1 g/L; Solubility [3]: nearly insoluble
O=C(CO)[C@@H](O)[C@H](O)[C@H](O)CO [D(−)-FRUCTOSE] | 200 g/100 ml | 
O=C[C@@H](O)[C@@H](O)[C@H](O)[C@H](O)CO [D(+)-Mannose] |  | Solubility (water) PubChem Database ([1]; at 17° C.): 713 g/L bei
CSCC[C@H](N)C(=O)O [L-Methionine] | 56.6 g/L water g/l | 
C[C@H](N)C(=O)O [L-ALANINE] | 164 g/l water | 

Reference: patent publication US20210207079A1, “PROCESS FOR PRODUCING CELL CULTURE MEDIA” (Merck Patent GmbH, priority 2015, published 2021)
